Laboratory results taken from paper PMC6658524, “Lysosomal degradation of newly formed insulin granules contributes to β cell failure in diabetes” (Nature Communications, 2019).
pIC50: −log10 of the molar value.

Experiments:
[1] = biological target: T1, p70S6K (Homo sapiens, UniProt P23443); assay: 60-kinase selectivity panel, % inhibition at […]; type: biochemical
T1 construct: gene RPS6KB1

[2] = biological target: T2, p38γ (SAPK3) (Homo sapiens, UniProt P53778); assay: mobility shift assay (Caliper); confirmed in 60-kinase panel, % inhibition at […]; type: biochemical
T2 construct: gene MAPK12

[3] = biological target: T3, PKD1 (Homo sapiens, UniProt Q15139); assay: biochemical; parameters: Kinase inhibition by mobility shift assay (Caliper)
T3 construct: gene PRKD1

[4] = biological target: T4, Abl(h) (Homo sapiens, UniProt P00519); assay: biochemical; parameters: Eurofins KinaseProfiler panel of 60 kinases, per cent inhibition
T4 construct: gene ABL1
From the text: (§1) A more detailed account of the discovery, chemistry and biochemical properties of this novel class of selective p38δ inhibitors will be given elsewhere.

[5] = biological target: T5, Aurora-B(h) (Homo sapiens, UniProt Q96GD4); assay: biochemical; parameters: Eurofins KinaseProfiler panel of 60 kinases, per cent inhibition
T5 construct: gene AURKB
T5 sequence (Q96GD4 whole entry): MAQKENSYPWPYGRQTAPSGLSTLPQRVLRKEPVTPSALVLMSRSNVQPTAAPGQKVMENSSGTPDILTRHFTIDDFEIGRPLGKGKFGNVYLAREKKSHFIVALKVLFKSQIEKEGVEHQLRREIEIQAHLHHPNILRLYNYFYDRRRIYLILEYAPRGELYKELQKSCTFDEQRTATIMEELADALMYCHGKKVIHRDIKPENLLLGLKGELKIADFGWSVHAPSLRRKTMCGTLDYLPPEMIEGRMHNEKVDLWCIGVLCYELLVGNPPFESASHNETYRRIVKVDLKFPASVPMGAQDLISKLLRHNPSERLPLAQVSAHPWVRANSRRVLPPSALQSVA
From the text: as §1

[6] = biological target: BrSK2(h) (Homo sapiens, UniProt Q8IWQ3); assay: biochemical; parameters: Eurofins KinaseProfiler panel of 60 kinases, per cent inhibition
Sequence of BrSK2(h) (Q8IWQ3 whole entry): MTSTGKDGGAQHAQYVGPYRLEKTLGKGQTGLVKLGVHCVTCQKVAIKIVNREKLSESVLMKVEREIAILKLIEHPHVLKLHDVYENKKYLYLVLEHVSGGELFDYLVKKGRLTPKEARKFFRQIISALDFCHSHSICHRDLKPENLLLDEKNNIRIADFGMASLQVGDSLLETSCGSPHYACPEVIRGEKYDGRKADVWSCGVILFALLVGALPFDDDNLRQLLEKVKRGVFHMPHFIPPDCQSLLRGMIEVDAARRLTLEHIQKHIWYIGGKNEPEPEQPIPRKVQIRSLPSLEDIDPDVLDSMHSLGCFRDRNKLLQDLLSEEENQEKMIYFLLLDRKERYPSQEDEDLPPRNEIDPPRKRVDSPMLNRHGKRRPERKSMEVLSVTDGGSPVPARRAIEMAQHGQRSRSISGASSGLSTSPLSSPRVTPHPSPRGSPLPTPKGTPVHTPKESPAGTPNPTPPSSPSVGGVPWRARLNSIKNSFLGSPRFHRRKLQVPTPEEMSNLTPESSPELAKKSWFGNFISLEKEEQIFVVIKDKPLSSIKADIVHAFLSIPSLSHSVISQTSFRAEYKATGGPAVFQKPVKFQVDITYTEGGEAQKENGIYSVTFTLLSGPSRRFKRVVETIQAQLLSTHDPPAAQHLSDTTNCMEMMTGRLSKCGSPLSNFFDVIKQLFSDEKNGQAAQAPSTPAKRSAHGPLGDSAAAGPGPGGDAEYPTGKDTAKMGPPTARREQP
From the text: as §1

[7] = biological target: T6, CaMKI(h) (Homo sapiens, UniProt Q14012); assay: biochemical; parameters: Eurofins KinaseProfiler panel of 60 kinases, per cent inhibition
T6 construct: gene CAMK1
From the text: as §1

[8] = biological target: T7, CaMKIIδ(h) (Homo sapiens, UniProt Q13557); assay: biochemical; parameters: Eurofins KinaseProfiler panel of 60 kinases, per cent inhibition
T7 construct: gene CAMK2D
From the text: as §1

[9] = biological target: DYRK2(h) (Homo sapiens, UniProt Q92630); assay: biochemical; parameters: Eurofins KinaseProfiler panel of 60 kinases, per cent inhibition
From the text: as §1

[10] = biological target: EGFR(h) (Homo sapiens, UniProt P00533); assay: biochemical; parameters: Eurofins KinaseProfiler panel of 60 kinases, per cent inhibition
Sequence of EGFR(h) (P00533 whole entry): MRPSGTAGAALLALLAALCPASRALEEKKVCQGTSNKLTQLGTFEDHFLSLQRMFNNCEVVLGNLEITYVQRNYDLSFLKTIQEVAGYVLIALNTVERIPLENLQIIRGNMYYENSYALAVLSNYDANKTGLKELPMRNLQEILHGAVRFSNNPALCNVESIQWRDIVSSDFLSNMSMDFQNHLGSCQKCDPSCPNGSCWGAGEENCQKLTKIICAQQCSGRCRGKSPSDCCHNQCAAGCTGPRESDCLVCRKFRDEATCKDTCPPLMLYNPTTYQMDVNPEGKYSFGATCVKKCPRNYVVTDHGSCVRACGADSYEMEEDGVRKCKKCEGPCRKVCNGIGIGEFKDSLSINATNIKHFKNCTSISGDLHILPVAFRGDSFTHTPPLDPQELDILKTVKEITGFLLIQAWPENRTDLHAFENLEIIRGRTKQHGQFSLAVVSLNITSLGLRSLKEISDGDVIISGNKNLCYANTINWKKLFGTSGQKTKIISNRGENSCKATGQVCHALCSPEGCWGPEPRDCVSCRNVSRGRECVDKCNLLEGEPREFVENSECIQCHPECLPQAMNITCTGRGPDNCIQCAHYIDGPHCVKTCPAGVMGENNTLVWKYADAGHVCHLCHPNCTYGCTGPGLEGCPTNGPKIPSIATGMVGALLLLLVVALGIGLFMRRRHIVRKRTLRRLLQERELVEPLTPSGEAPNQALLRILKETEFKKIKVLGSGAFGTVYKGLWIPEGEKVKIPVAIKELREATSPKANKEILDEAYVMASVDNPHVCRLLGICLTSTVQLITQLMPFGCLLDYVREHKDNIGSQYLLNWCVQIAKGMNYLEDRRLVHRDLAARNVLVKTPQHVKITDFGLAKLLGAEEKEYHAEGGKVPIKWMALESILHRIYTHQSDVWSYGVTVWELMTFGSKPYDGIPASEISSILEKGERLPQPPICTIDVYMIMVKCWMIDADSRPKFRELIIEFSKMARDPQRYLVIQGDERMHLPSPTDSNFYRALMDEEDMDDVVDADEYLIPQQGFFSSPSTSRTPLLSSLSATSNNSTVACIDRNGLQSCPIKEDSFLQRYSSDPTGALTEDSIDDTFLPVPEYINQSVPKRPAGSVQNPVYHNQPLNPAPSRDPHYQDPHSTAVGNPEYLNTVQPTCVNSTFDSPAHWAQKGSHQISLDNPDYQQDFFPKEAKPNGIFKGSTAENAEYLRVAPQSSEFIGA
From the text: as §1

[11] = biological target: EphA1(h) (Homo sapiens, UniProt P21709); assay: biochemical; parameters: Eurofins KinaseProfiler panel of 60 kinases, per cent inhibition
From the text: as §1

[12] = biological target: EphA3(h) (Homo sapiens, UniProt P29320); assay: biochemical; parameters: Eurofins KinaseProfiler panel of 60 kinases, per cent inhibition
From the text: as §1

[13] = biological target: EphB4(h) (Homo sapiens, UniProt P54760); assay: biochemical; parameters: Eurofins KinaseProfiler panel of 60 kinases, per cent inhibition
Sequence of EphB4(h) (P54760 whole entry): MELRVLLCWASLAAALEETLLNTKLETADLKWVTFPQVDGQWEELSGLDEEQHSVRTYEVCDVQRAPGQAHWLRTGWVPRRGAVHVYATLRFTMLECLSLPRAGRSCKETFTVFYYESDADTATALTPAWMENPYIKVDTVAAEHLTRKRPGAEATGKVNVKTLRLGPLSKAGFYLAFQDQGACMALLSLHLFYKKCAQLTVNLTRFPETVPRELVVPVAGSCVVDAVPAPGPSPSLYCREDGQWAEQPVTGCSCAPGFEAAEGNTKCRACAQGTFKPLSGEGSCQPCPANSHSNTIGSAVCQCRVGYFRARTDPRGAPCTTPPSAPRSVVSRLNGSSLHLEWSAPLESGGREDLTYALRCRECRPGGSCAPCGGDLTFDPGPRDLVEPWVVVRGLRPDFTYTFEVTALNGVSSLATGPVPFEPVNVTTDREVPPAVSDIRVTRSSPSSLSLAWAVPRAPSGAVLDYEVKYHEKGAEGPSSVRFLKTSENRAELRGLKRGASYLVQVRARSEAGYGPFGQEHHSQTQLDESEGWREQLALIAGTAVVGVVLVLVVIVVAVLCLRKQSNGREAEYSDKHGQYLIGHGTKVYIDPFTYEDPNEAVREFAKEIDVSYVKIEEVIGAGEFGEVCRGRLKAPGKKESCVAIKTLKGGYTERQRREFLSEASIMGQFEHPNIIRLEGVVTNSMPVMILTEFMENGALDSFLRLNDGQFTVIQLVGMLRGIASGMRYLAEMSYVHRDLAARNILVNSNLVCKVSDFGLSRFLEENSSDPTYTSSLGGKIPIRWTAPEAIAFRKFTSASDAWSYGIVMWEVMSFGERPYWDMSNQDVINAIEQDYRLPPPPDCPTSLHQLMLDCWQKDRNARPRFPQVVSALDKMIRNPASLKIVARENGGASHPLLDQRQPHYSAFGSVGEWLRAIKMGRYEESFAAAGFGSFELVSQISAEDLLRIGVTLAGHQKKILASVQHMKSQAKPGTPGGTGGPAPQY
From the text: as §1

[14] = biological target: FGFR1(h) (Homo sapiens, UniProt P11362); assay: biochemical; parameters: Eurofins KinaseProfiler panel of 60 kinases, per cent inhibition
From the text: as §1

[15] = biological target: JAK3(h) (Homo sapiens, UniProt P52333); assay: biochemical; parameters: Eurofins KinaseProfiler panel of 60 kinases, per cent inhibition
From the text: as §1

[16] = biological target: KDR(h) (Homo sapiens, UniProt P35968); assay: biochemical; parameters: Eurofins KinaseProfiler panel of 60 kinases, per cent inhibition
From the text: as §1

[17] = biological target: Lck(h) activated (Homo sapiens, UniProt P06239); assay: biochemical; parameters: Eurofins KinaseProfiler panel of 60 kinases, per cent inhibition
From the text: as §1

[18] = biological target: T8, MAPK1(h) (Homo sapiens, UniProt P27361); assay: biochemical; parameters: Eurofins KinaseProfiler panel of 60 kinases, per cent inhibition
T8 construct: gene MAPK3
T8 sequence (P27361 whole entry): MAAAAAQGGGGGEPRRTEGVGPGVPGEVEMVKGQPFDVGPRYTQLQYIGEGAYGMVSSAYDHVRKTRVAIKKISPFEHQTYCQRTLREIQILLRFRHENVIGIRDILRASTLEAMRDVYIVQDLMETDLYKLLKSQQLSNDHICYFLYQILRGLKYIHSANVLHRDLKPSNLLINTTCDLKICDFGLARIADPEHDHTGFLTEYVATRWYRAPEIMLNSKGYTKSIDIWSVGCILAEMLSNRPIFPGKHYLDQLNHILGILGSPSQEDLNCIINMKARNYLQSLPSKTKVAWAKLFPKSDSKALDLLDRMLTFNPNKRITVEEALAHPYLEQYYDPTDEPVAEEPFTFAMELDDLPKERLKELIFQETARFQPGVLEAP
From the text: as §1

[19] = biological target: Met(h) (Homo sapiens, UniProt P08581); assay: biochemical; parameters: Eurofins KinaseProfiler panel of 60 kinases, per cent inhibition
From the text: as §1

[20] = biological target: PAK4(h) (Homo sapiens, UniProt O96013); assay: biochemical; parameters: Eurofins KinaseProfiler panel of 60 kinases, per cent inhibition
Sequence of PAK4(h) (O96013 whole entry): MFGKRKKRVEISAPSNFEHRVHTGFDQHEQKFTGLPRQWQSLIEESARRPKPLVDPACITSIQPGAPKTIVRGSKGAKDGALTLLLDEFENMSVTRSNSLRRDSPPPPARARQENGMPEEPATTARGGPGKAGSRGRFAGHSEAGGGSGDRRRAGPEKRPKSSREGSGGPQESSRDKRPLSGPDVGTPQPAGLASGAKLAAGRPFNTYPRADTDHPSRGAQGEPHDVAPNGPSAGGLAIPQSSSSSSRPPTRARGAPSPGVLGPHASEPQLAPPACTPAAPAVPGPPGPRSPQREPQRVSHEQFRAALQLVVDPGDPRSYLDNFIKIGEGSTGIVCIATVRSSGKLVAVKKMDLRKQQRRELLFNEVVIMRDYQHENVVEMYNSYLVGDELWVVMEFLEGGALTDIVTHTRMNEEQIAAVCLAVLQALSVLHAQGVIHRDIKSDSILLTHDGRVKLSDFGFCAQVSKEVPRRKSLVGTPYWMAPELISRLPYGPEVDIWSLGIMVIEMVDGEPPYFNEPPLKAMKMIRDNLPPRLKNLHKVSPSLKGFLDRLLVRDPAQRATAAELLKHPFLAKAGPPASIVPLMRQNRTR
From the text: as §1

[21] = biological target: T9, PEK(h) (Homo sapiens, UniProt Q9NZJ5); assay: biochemical; parameters: Eurofins KinaseProfiler panel of 60 kinases, per cent inhibition
T9 construct: gene EIF2AK3
From the text: as §1

[22] = biological target: T10, PI3 Kinase (p110α/p85α)(h) (Homo sapiens, UniProt P42336); assay: biochemical; parameters: Eurofins KinaseProfiler panel of 60 kinases, per cent inhibition
T10 construct: gene PIK3CA; p110α/p85α
From the text: as §1

[23] = biological target: T11, PKA(h) (Homo sapiens, UniProt P17612); assay: biochemical; parameters: Eurofins KinaseProfiler panel of 60 kinases, per cent inhibition
T11 construct: gene PRKACA
From the text: as §1

[24] = biological target: T12, PKCθ(h) (Homo sapiens, UniProt Q04759); assay: biochemical; parameters: Eurofins KinaseProfiler panel of 60 kinases, per cent inhibition
T12 construct: gene PRKCQ
T12 sequence (Q04759 whole entry): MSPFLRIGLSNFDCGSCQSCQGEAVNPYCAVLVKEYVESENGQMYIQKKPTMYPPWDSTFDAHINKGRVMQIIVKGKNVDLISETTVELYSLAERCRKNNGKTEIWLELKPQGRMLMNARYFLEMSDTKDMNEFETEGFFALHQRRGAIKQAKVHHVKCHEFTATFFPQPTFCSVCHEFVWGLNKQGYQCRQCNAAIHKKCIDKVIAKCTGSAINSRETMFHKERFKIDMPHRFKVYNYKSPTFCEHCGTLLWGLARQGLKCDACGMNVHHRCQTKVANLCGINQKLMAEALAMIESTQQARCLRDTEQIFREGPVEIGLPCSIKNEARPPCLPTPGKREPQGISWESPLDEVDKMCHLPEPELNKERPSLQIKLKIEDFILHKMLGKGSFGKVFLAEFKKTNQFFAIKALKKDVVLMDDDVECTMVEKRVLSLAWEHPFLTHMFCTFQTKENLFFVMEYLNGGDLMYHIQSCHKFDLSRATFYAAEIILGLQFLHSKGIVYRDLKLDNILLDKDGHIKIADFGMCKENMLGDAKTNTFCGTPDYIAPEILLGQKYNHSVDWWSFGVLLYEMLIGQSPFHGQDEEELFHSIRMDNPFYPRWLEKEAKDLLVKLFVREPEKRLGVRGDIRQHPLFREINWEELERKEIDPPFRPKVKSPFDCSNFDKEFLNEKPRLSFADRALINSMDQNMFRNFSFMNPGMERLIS
From the text: as §1

[25] = biological target: T13, TrkA(h) (Homo sapiens, UniProt P04629); assay: biochemical; parameters: Eurofins KinaseProfiler panel of 60 kinases, per cent inhibition
T13 construct: gene NTRK1
From the text: as §1

## CCN1CCOc2nc(N3CCOCC3)nc(-c3ccc(NC(=O)OC)cc3)c2C1=O [Compound A]
[1]
  % inhibition at 10 μM: 59
[2]
  % inhibition at 10 μM: 64
[3]
  pIC50: < 4.52
[4]
  inhibition at 1 µM: 6%
  inhibition at 10 µM: 8%
[5]
  inhibition at 1 µM: -24%
  inhibition at 10 µM: -28%
[6]
  inhibition at 1 µM: 5%
  inhibition at 10 µM: 5%
[7]
  inhibition at 1 µM: 5%
  inhibition at 10 µM: 11%
[8]
  inhibition at 1 µM: -6%
  inhibition at 10 µM: 1%
[9]
  inhibition at 1 µM: -10%
  inhibition at 10 µM: -10%
[10]
  inhibition at 1 µM: -17%
  inhibition at 10 µM: 4%
[11]
  inhibition at 1 µM: 0%
  inhibition at 10 µM: 7%
[12]
  inhibition at 1 µM: 8%
  inhibition at 10 µM: 12%
[13]
  inhibition at 1 µM: -3%
  inhibition at 10 µM: 8%
[14]
  inhibition at 1 µM: 9%
  inhibition at 10 µM: 6%
[15]
  inhibition at 1 µM: 0%
  inhibition at 10 µM: -5%
[16]
  inhibition at 1 µM: -16%
  inhibition at 10 µM: -12%
[17]
  inhibition at 1 µM: -7%
  inhibition at 10 µM: 13%
[18]
  inhibition at 1 µM: 0%
  inhibition at 10 µM: 5%
[19]
  inhibition at 1 µM: -16%
  inhibition at 10 µM: -7%
[20]
  inhibition at 1 µM: -2%
  inhibition at 10 µM: 4%
[21]
  inhibition at 1 µM: -12%
  inhibition at 10 µM: -11%
[22]
  inhibition at 1 µM: -1%
  inhibition at 10 µM: 2%
[23]
  inhibition at 1 µM: -8%
  inhibition at 10 µM: -22%
[24]
  inhibition at 1 µM: 7%
  inhibition at 10 µM: 7%
[25]
  inhibition at 1 µM: -21%
  inhibition at 10 µM: 5%
